pIC50: −log10 of the molar value.
Target: T1, human S1P1 receptors (Homo sapiens, UniProt P21453)
T1 construct: host or cells: HEK293
Assay: S1P1R antagonist assay (fluorescent membrane potential dye, cAMP readout)
Type: cell-based
Conditions: HEK293 cells expressing human S1P1 receptors and CNG channel; 500 nM NECA; S1P1R agonist 10 nM; 90 minutes; read-out: EC50 or IC50 value

T1 sequence (P21453 whole entry): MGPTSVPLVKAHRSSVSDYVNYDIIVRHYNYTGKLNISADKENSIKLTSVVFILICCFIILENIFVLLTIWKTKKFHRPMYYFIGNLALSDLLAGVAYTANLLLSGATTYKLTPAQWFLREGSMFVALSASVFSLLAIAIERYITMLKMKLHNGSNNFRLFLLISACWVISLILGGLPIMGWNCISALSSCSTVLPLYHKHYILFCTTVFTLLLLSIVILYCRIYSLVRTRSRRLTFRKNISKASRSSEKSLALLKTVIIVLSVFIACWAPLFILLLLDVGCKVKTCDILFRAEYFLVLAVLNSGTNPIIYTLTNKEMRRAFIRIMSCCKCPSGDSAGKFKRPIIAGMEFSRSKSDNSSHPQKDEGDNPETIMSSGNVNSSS

Structure (SMILES)	pIC50
O=C(Nc1ccc(Oc2ccc(F)cc2)cc1)[C@@H]1C[C@@H](c2ccccc2)CN1C(=O)Cc1cnc[nH]1 [Compound 251, (2S,4S)-1-(2-(1H-imidazol-5-yl)acetyl)-N-(4-(4-fluorophenoxy)phenyl)-4-phenylpyrrolidine-2-carboxamide]	≥ 6.52
CC(=O)N[C@@H](COCc1ccc(F)cc1)C(=O)Nc1ccc(Oc2ccc(F)cc2)cc1 [Compound 164, (S)-2-acetamido-3-(4-fluorobenzyloxy)-N-(4-(4-fluorophenoxy)phenyl)propanamide]	≥ 6.52
O=C(Nc1ccc(Oc2ccc(F)cc2)cc1)[C@@H]1C[C@@H](CNCc2ccccc2)CN1C(=O)Cn1cncn1 [Compound 262, (2S,4S)-1-(2-(1H-1,2,4-triazol-1-yl)acetyl)-4-((benzylamino)methyl)-N-(4-(4-fluorophenoxy)phenyl)pyrrolidine-2-carboxamide]	6.00 to 6.52
O=C(Nc1ccc(Oc2ccc(F)cc2)cc1)[C@@H]1C[C@@H](Cc2ccccc2F)CN1C(=O)Cn1cncn1 [Compound 106, (2S,4R)-1-(2-(1H-1,2,4-triazol-1-yl)acetyl)-4-(2-fluorobenzyl)-N-(4-(4-fluorophenoxy)phenyl)pyrrolidine-2-carboxamide]	≥ 6.52
COCCC(=O)N1C[C@H](Cc2ccccc2)C[C@H]1C(=O)Nc1ccc(Oc2ccc(F)cc2)cc1 [Compound 90, (2S,4R)-4-benzyl-N-(4-(4-fluorophenoxy)phenyl)-1-(3-methoxypropanoyl)pyrrolidine-2-carboxamide]	≥ 6.52
O=C(Nc1ccc(Oc2ccc(F)cc2)cc1)[C@@H]1C[C@@H](Cc2ccccc2Cl)CN1C(=O)Cn1cncn1 [Compound 57, (2S,4R)-1-(2-(1H-1,2,4-triazol-1-yl)acetyl)-4-(2-chlorobenzyl)-N-(4-(4-fluorophenoxy)phenyl)pyrrolidine-2-carboxamide]	≥ 6.52
Cc1noc(C)c1CC(=O)N[C@@H](COCc1ccccc1)C(=O)Nc1ccc(Oc2ccc(F)cc2)cc1 [Compound 150, (S)-3-(benzyloxy)-2-(2-(3,5-dimethylisoxazol-4-yl)acetamido)-N-(4-(4-fluorophenoxy)phenyl)propanamide]	≥ 6.52

Now from value to molecule:

pIC50	Structure (SMILES)
< 6.00	O=C(CSc1ncccn1)NC(COCc1ccccc1)C(=O)Nc1ccc(Oc2ccccc2)cc1 (centres unmarked) [Compound 331, N-(2-oxo-1-{[(phenylmethyl)oxy]methyl}-2-{[4-(phenyloxy)phenyl]amino}ethyl)-2-(pyrimidin-2-ylthio)acetamide]
< 6.00	COc1cccc2cc(C(=O)NC(COCc3ccccc3)C(=O)Nc3ccc(Oc4ccccc4)cc3)oc12 (centres unmarked) [Compound 367, 7-(methyloxy)-N-(2-oxo-1-{[(phenylmethyl)oxy]methyl}-2-{[4-(phenyloxy)phenyl]amino}ethyl)-1-benzofuran-2-carboxamide]
< 6.00	O=C(Cc1ccc(F)cc1F)NC(COCc1ccccc1)C(=O)Nc1ccc(Oc2ccccc2)cc1 (centres unmarked) [Compound 363, N-(2-oxo-1-{[(phenylmethyl)oxy]methyl}-2-{[4-(phenyloxy)phenyl]amino}ethyl)-2-(2,4-difluorophenyl)acetamide]
< 6.00	COc1ccccc1CCC(=O)NC(COCc1ccccc1)C(=O)Nc1ccc(Oc2ccccc2)cc1 (centres unmarked) [Compound 394, N-(2-oxo-1-{[(phenylmethyl)oxy]methyl}-2-{[4-(phenyloxy)phenyl]amino}ethyl)-3-(2-methoxyphenyl)propanamide]
< 6.00	O=C(NC(COCc1ccccc1)C(=O)Nc1ccc(Oc2ccccc2)cc1)c1ccco1 (centres unmarked) [Compound 283, N-(2-oxo-1-{[(phenylmethyl)oxy]methyl}-2-{[4-(phenyloxy)phenyl]amino}ethyl)furan-2-carboxamide]
< 6.00	O=C(CCc1cccnc1)NC(COCc1ccccc1)C(=O)Nc1ccc(Oc2ccccc2)cc1 (centres unmarked) [Compound 369, N-(2-oxo-1-{[(phenylmethyl)oxy]methyl}-2-{[4-(phenyloxy)phenyl]amino}ethyl)-3-(pyridin-3-yl)propanamide]
6.00 to 6.52	CC/C=C/CC(=O)NC(COCc1ccccc1)C(=O)Nc1ccc(Oc2ccccc2)cc1 (centres unmarked) [Compound 327]
